Converted amounts (≈) assume the structure as drawn.
What was measured:
Format in all cases: physicochemical
[1] = Water solubility (phase solubility experiments) with and without water-soluble vitamin; conditions: for solubility: pH 2, read-out: water solubility (free base equivalent)
Excerpt: (§1) The present inventors have discovered that the compounds of Formula (I) form water-soluble complexes with water-soluble vitamins such as ascorbic acid, nicotinamide thiamine and pyridoxine. The phenomenon of complex formation can be confirmed by phase solubility experiments (FIGS. 1 and 2), and by spectral shifts and changes in electrochemical responses of the vitamins in the presence of these compounds (FIGS. 4a and 4b). For example, FIGS. 4a and 4b show the results of a titration of excess ascorbic acid with the hydrogen sulfate salt of N-cyclohexyl-N-methyl-4-(2-oxo-1,2,3,5-tetrahydroimidazo-[2,1-b]quinazolin-7-yl)oxybutyramide. It is hypothesized that the relatively planar tricyclic structure of the compound and the presence of non-bonding electrons on ring heteroatoms renders the compound capable of charge donation to suitable acceptors. In addition, the compound may also function as a charge acceptor due to the presence of a formal positive charge on a ring nitrogen at low pH (i.e., due to the presence of the planar cyclic cationic portion of the compound). Thus, the interaction with the water-soluble vitamin may be defined in terms of the existence of a charge transfer complex, resulting in enhanced water-solubility. […] The decrease in current is due to a lower diffusion coefficient of the complex.
(§2) The improvement in solubility in the presence of water-solublevitamins is specifically illustrated by FIGS. 1 and 2. […] The solubility is still further enhanced by the lyophilization process of the present invention. For example, if the lyophilization procedure described below is followed, N-cyclohexyl-N-methyl-4-(2-oxo-1,2,3,5-tetrahydroimidazo-[2,1-b]quinazolin-7-yl)oxybutyramide is water-soluble to the extent of about 5,000 μg/ml at pH2 using 10% ascorbic acid (See FIG. 5).

[2] = Water solubility after complexation with ascorbic acid and lyophilization
Procedure: as §2
6.5 grams of the sulfate salt of N-cyclohexyl-N-methyl-4-(2-oxo-1,2,3,5-tetrahydroimidazo[2,1-b]quinazolin- 7-yl)oxyburyamide were dissolved, along with 100 grams of ascorbic acid, 500 ml of tert-butyl alcohol, sufficient sulfuric acid to adjust the pH to 2.0, and sufficient water to bring the volume to 1 liter. The solution was stirred at room temperature for about 10 minutes and filtered with a 0.22 micron Milipore™ cellulose filter. 5 Milliliters of the solution were then dispensed into a 10 ml vial for lyophilization. In the lyophilization procedure, the condenser temperature was initially set to give a shelf temperature of -60° C., and the pressure was initially atmospheric. After the product had frozen, the pressure was gradually dropped to 10 milliTorr, and the vacuum was held for about a day. […]

[3] = Solution-phase stability / shelf life (kinetic studies)
Excerpt: A significant advantage of the lyophilization procedure of the present invention is that it provides for an extended shelf life as compared to that of the class of ocyalkylamides or even their vitamin complexes in solution. For example, the shelf life of a solution of the ascorbic acid complex of N-cyclohexyl-N-methyl-4-(2-oxo-1,2,3,5-tetrahydro-imidazo-[2,1-b]quinazolin-7-yl) oxybutyramide is only about 5 days. The lyophilized product prepared according to the formulation method of the present invention can be expected to permit a shelf life of at least two years.
The reason for the generally brief shelf lives in solution is that the class of oxyalkylamides has limited solution-phase stability. […] At pH 2, at which the compound is formulated, shelf life (T90) is less than a week. In a concentrated form in neat dimethylacetamide, polyethylene glycol or the like, the T90 is only about three weeks.

[4] = Solid state stability in lyophilized powders at accelerated temperature and various states of humidity; conditions: for Appearance (Color): after 7 days
Procedure: Accordingly, in order to maximize the stability of such a compound for parenteral administration therapy, the present inventors have developed a lyophilization procedure. The lyophilization substantially removes water: the primary nucleophile responsible for the degradative hydrolysis of the compound in solution.
^a Made from 2 mL of tBuOH/AA/H2 O (50/10/40) with pH = 2.0 and
N--cyclohexylN--methyl4-(2-oxo-1,2,3,5-tetrahydroimidazo-2,1-bquinazolin-
-yl)oxybutyramide 130 mL
^b Capped means: not stored in the desiccator with the vial sealed.
47% RH capped and 47% RH holes mean: stored in a 47% relatively humidity
desiccator with the vial capped or covered with aluminum foil with 4 hole
in the foil respectively.
6.5 grams of the sulfate salt of N-cyclohexyl-N-methyl-4-(2-oxo-1,2,3,5-tetrahydroimidazo[2,1-b]quinazolin- 7-yl)oxyburyamide were dissolved, along with 100 grams of ascorbic acid, 500 ml of tert-butyl alcohol, sufficient sulfuric acid to adjust the pH to 2.0, and sufficient water to bring the volume to 1 liter. The solution was stirred at room temperature for about 10 minutes and filtered with a 0.22 micron Milipore™ cellulose filter. 5 Milliliters of the solution were then dispensed into a 10 ml vial for lyophilization. In the lyophilization procedure, the condenser temperature was initially set to give a shelf temperature of -60° C., and the pressure was initially atmospheric. After the product had frozen, the pressure was gradually dropped to 10 milliTorr, and the vacuum was held for about a day. Still under vacuum, the shelf temperature was slowly raised by incrementally increasing the temperature to the following values for about 6 hours at each value: -40° C., -20° C.; -10° C.; 0° C.; and 15°-25° C. During this lyophilization process, all the butanol and water were removed. The final lyophilized powder comprised 32.5 milligrams of N-cyclohexyl-N-methyl-4-(2-oxo-1,2,3,5-tetrahydroimidazo-[2,1-b]quinazolin-7-yl)oxybutyramide sulfate salt and 500 milligrams of ascorbic acid, some residual water (4% w/w) and tert-butyl alcohol (3% w/w) per vial.

[5] = Electrochemical titration of excess ascorbic acid with the drug (FIGS. 4a and 4b); conditions: titration of excess ascorbic acid with hydrogen sulfate salt, in solution
Excerpt: as §1

[6] = 40 °C., 47% RH capped (first line)
[7] = 40 °C., 47% RH capped (second line)

water solubility ([1]; in the presence of water soluble vitamins, and ethanol and propylene glycol (FIG. 2)): improved water solubility
water solubility ([1]; in the presence of water-soluble vitamins (FIG. 1)): improved water solubility
solubility ([1]; pH2, absence of water-soluble vitamin): ~0.12 mg/mL
solubility ([1]; water with 10% ascorbic acid, pH2, in the presence of 10% (about 0.6M) ascorbic acid): ~0.42 mg/mL
solubility ([2]; complexation with a water soluble vitamin and lyophilization (FIG. 5)): enhancement of solubility
solubility ([2]; pH 2, pH2, 10% ascorbic acid, lyophilized (FIG. 5), read-out: water solubility after lyophilization procedure): ~5 mg/mL (≈ 13 mM)
T90 ([3]; concentrated form in neat dimethylacetamide, polyethylene glycol or the like): about three
pH of maximum stability ([3]; in solution): ~6
estimation shelf life in solution ([3]; in solution, about pH 6): six
shelf life (T90) ([3]; in solution, pH 2): less than a week
degradation catalysis ([3]; kinetic studies in solution): both acid and base catalyzed
% Remaining, 7 days ([4]; 5 °C., Capped): 99.2%
Appearance (Color) ([4]; 5 °C., Capped): White
% Remaining, 7 days ([4]; 25 °C., 47% RH capped): 100%
% Remaining, 36 days ([4]; 25 °C., 47% RH capped): 100%
Appearance (Color) ([4]; 25 °C., 47% RH capped): White
% Remaining, 7 days ([4]; 25 °C., Capped): 100%
% Remaining, 36 days ([4]; 25 °C., Capped): 99.7%
Appearance (Color) ([4]; 25 °C., Capped): White
% Remaining, 7 days [4, 6]: 100%
% Remaining, 36 days [4, 6]: 96.7%
Appearance (Color) [4, 6]: Light yellow
% Remaining, 5 days ([4]; 40 °C., 47% RH capped (second line), 5 days): 99.2%
% Remaining, 7 days [4, 7]: 99.2%
% Remaining, 36 days [4, 7]: 94.5%
Appearance (Color) [4, 7]: Light yellow
% Remaining, 7 days ([4]; 40 °C., Capped): 100%
% Remaining, 36 days ([4]; 40 °C., Capped): 94.4%
Appearance (Color) ([4]; 40 °C., Capped): Light yellow
% Remaining, 7 days ([4]; RT, 47% RH holes): 100%
% Remaining, 36 days ([4]; RT, 47% RH holes): 100%
Appearance (Color) ([4]; RT, 47% RH holes): White
Structure (SMILES): CN(C(=O)CCCOc1ccc2c(c1)CN1CC(=O)NC1=N2)C1CCCCC1 [N-cyclohexyl-N-methyl-4-(2-oxo-1,2,3,5-tetrahydroimidazo-[2,1-b]quinazolin-7-yl)oxybutyramide]
electrochemical response of ascorbic acid [5]: a shift in the peak potential and a reduction of the peak current of ascorbic acid
